According to article PMC7362284, “Pharmacokinetic and Lipidomic Assessment of the In Vivo Effects of Parishin A-Isorhynchophylline in Rat Migraine Models” (Journal of Analytical Methods in Chemistry, 2020):
Like-named read-outs stand apart in the source and are kept apart here. Each block holds one molecule with its values, some of them ahead of it.

Test: Pharmacokinetic study in nitroglycerin-induced migraine model rats (plasma, HPLC-MS/MS)
Format: in vivo, rat
Conditions: for CL/F / MRT last / MRT inf / Vd/F / half-life: female, Sprague-Dawley, po; for CL/F: read-out: CL z/F (converted); for MRT last: read-out: MRT (0 − t); for MRT inf: read-out: MRT (0 − ∞); for Vd/F: read-out: V z/F; for half-life: read-out: t1/2z (converted); for clearance rate (CL z/F), administration-alone group higher than the coadministration group: single administration versus PI coadministration
Procedure: Healthy Sprague-Dawley (SD) female rats weighing 180 g ± 20 were provided by Hunan SJA Laboratory Animal Co., Ltd. (animal license number: SCXK (Xiang) 2016-0002). Rats underwent adaptive feeding for one week and were fasted for 12 h. Rats had open access to water throughout the study. For pharmacokinetic analysis, 18 SD rats were randomly divided into 3 groups and 0.4 mL of nitroglycerin (dosage: 10 mg/kg) was injected into the forehead to establish the migraine model. […] For blood sampling, 0.3 mL of blood was taken from the rat orbit prior to drug administration and 0, 5, 15, 30, and 45 min and 1, 2, 4, 6, 8, 10, 12, and 24 h after administration. These blood samples were collected into EP tubes coated with heparin sodium. After centrifugation at 4000 rmp for 10 min, supernatants were collected and stored at −80°C.
The mixture was vortexed for 3 min and centrifuged for 10 min at 13000 rpm. 200 μL of supernatants was collected for LC/MS analysis. For GAS and PA assessments, 50 μL of geniposide (IS: 350 ng/mL) and 250 μL of methanol were added to 50 μL of the plasma sample. The mixture was vortexed for 3 min and centrifuged for 10 min at 13000 rpm. 200 μL of supernatants was collected into centrifuge tubes, dried in nitrogen, and dissolved in 200 μL of 5% acetonitrile solution (95 : 5, v : v).
For pharmacokinetic studies, the AB Sciex Triple Quad™ 4500 was used for detection. […] A flow rate of 0.5 mL/min was used with an injection volume of 2 μL. The gradient elution was 0.0–1.2 min, 5% B; 1.2–6.0 min, 5–35% B; 6.0–8.5 min, 35–95% B; 8.5–9.0 min, 5% B; and 9.0–10.0 min, 5% B. Under mass spectrometry conditions, the ESI positive ion mode with multiple reaction monitoring (MRM) was used for detection using the following parameters: ion source temperature = 550°C; ion spray voltage = 4500 V; curtain gas (nitrogen) = 25 psi; atomizing gas (GS 1) = 50 psi; auxiliary gas (GS 2) = 50 psi. […] The IS was pyrrolidone hydrochloride, m/z 357.1–134.1 (DP: 85 V; CE: 35 eV). For GAS and PA, the column temperature was controlled at 40°C; phase A was 0.1% aqueous formic acid, and phase B was acetonitrile; flow rate was 0.5 mL/min; injection volume was 2 μL. The gradient elution was as follows: 0.0–1.2 min, 5% B; 1.2–8.0 min, 5–95% B; 8.0–9.0 min, 95–5% B; 9.0–10.0 min, 5% B; […]. For mass spectrometry, the ESI negative ion mode with MRM mode detection was employed. Mass spectrometry parameters were as follows: ion source temperature = 550°C; ion spray voltage = −4500 V; curtain gas (nitrogen) = 25 psi; atomizing gas (GS 1) = 50 psi; auxiliary gas (GS 2) = 50 psi. Ion pairs were as follows: GAS, m/z 331.1–123.0 (DP: −60 V; CE: −20 V); PA, m/z 995.1–726.9 (DP: −165 V; CE: −39 V). The IS was geniposide, m/z 433.0–225 (DP: −165 V; CE: −20 eV).
DAS 3.2.8 software was used to analyze the plasma concentrations in the different groups across all experimental time points. Time-concentration curves were drawn using Sigma Plot 10.0. For lipidomics, raw data were converted to the common (mzData) format using Agilent MassHunter Qualitative Analysis B.08.00 software (Agilent Technologies, USA). In the R software platform, the XCMS program was used to assess peak identification times, retention time correction, and automatic integration pretreatments. Data were subjected to IS and weight normalization. Visualization matrices containing the sample name, m/z-RT pair, and peak area were obtained. […] After editing, data matrices were imported into SIMCA-P 13.0 (Umetrics, Umea, Sweden), mean-centered, and scaled to Pareto variance. Multivariate analysis was then conducted.

[1] = Combine: PI coadministered (ISO 40 mg/kg, PA 372.4 mg/kg) intragastric, migraine model rats, plasma
[2] = PI coadministration versus single administration, migraine model rats
[3] = Single: ISO alone 40 mg/kg intragastric, migraine model rats, plasma
[4] = Single: PA alone 372.4 mg/kg intragastric, migraine model rats, plasma
[5] = rat, in vivo, Single: PA alone 372.4 mg/kg intragastric, migraine model rats, plasma

Structure (SMILES): CC[C@H]1CN2CC[C@]3(C(=O)Nc4ccccc43)[C@@H]2C[C@@H]1/C(=C\OC)C(=O)OC [RHY, rhynchophylline]
AUC (0 − t) [1]: 412.82 μg/L ∗ h
AUC (0 − ∞) [1]: 455.57 μg/L ∗ h
C-max [1]: 94.10 µg/L
T-max [1]: 0.96 h
AUC, coadministration higher than the administration-alone group [2]: 1.44 fold
half-life (t1/2z), coadministration higher than the administration-alone group [2]: 3.46 fold
AUC (0 − t) [3]: 313.95 μg/L ∗ h
AUC (0 − ∞) [3]: 314.00 μg/L ∗ h
C-max [3]: 88.35 µg/L
T-max [3]: 0.63 h
CL/F (rat, in vivo, 40 mg/kg): 5530 mL/min/kg
MRT last (rat, in vivo, 40 mg/kg): 3.21 h
MRT inf (rat, in vivo, 40 mg/kg): 3.21 h
Vd/F (rat, in vivo, 40 mg/kg): 663 L/kg
half-life (rat, in vivo, 40 mg/kg): 1.63 h
clearance rate (CL z/F), administration-alone group higher than the coadministration group (migraine model rats): 3.16 fold

stability in plasma (rat, in vivo): unstable
stability in rats (rat, in vivo): unstable
Structure (SMILES): O=C(CC(O)(CC(=O)OCc1ccc(O[C@@H]2O[C@H](CO)[C@@H](O)[C@H](O)[C@H]2O)cc1)C(=O)OCc1ccc(O[C@@H]2O[C@H](CO)[C@@H](O)[C@H](O)[C@H]2O)cc1)OCc1ccc(O[C@@H]2O[C@H](CO)[C@@H](O)[C@H](O)[C@H]2O)cc1 [PA, parishin A]

Structure (SMILES): CC[C@H]1CN2CC[C@@]3(C(=O)Nc4ccccc43)[C@@H]2C[C@@H]1/C(=C\OC)C(=O)OC [ISO, isorhynchophylline]
AUC (0 − t) [1]: 1755.85 μg/L ∗ h
AUC (0 − ∞) [1]: 1768.51 μg/L ∗ h
C-max [1]: 867.07 µg/L
T-max [1]: 0.58 h
AUC, coadministration higher than the administration-alone group [2]: 1.31 fold
half-life (t1/2z), coadministration higher than the administration-alone group [2]: 1.99 fold
AUC (0 − t) [3]: 1340.01 μg/L ∗ h
AUC (0 − ∞) [3]: 1340.09 μg/L ∗ h
C-max [3]: 645.28 µg/L
T-max [3]: 0.54 h
CL/F (rat, in vivo, 40 mg/kg): 1480 mL/min/kg
MRT last (rat, in vivo, 40 mg/kg): 1.76 h
MRT inf (rat, in vivo, 40 mg/kg): 1.77 h
Vd/F (rat, in vivo, 40 mg/kg): 242 L/kg
half-life (rat, in vivo, 40 mg/kg): 1.9 h
clearance rate (CL z/F), administration-alone group higher than the coadministration group (migraine model rats): 3.15 fold

Structure (SMILES): OCc1ccc(O[C@@H]2O[C@H](CO)[C@@H](O)[C@H](O)[C@H]2O)cc1 [GAS, gastrodin]
AUC (0 − t) [1]: 12757.67 μg/L ∗ h
AUC (0 − ∞) [1]: 13028.09 μg/L ∗ h
C-max [1]: 3853.50 µg/L
T-max [1]: 1.08 h
AUC, coadministration higher than the administration-alone group [2]: 1.31 fold
MRT, coadministration higher than the single-administration group [2]: 1.84 fold
half-life (t1/2z), coadministration higher than the administration-alone group [2]: 2.79 fold
AUC (0 − t) [4]: 9934.28 μg/L ∗ h
AUC (0 − ∞) [4]: 9935.51 μg/L ∗ h
C-max [4]: 4082.17 µg/L
T-max [4]: 0.83 h
CL/F [5]: 640 mL/min/kg
MRT last [5]: 2.14 h
MRT inf [5]: 2.15 h
Vd/F [5]: 56.6 L/kg
half-life [5]: 1.02 h
